In US20260285859A1, “BI-CYCLIC PYRIMIDINE COMPOUNDS, METHODS AND USES THEREOF” (Zeno Management, Inc., priority 2023, published 2026):

Tests used:
WEE1 = WEE1 (Homo sapiens, UniProt P30291); test: LanthaScreen Eu Kinase Binding Assay, WEE1
Experimental: (§1) Binding of the tracer to the kinase is detected using a europium-labeled anti-GST antibody, which binds to the fused tag on the kinase protein. […] Inhibitor binding to the kinase competes with tracer binding, resulting in loss of FRET from the donor/acceptor pairs.
(§2) Kinase/Antibody Mixtures and Tracer are diluted to a 2× and 4× working concentration, respectively in this same buffer. […] 0% displacement (no known inhibitor) and 100% displacement (highest concentration of known inhibitor) controls were included on each plate for maximum and minimum Emission Ratio determination, respectively. Dasatinib was used for both PKMYT1 and WEE1 as the known inhibitor.
(§3) IC50 determination was performed using a non-linear regression, variable slope (four parameter), inhibitor v. response equation (Prism 9.0).

PKMYT1 = target: T1, PKMYT1 (Homo sapiens, UniProt Q99640); test: LanthaScreen Eu Kinase Binding Assay, PKMYT1
T1 sequence (Q99640 1-499): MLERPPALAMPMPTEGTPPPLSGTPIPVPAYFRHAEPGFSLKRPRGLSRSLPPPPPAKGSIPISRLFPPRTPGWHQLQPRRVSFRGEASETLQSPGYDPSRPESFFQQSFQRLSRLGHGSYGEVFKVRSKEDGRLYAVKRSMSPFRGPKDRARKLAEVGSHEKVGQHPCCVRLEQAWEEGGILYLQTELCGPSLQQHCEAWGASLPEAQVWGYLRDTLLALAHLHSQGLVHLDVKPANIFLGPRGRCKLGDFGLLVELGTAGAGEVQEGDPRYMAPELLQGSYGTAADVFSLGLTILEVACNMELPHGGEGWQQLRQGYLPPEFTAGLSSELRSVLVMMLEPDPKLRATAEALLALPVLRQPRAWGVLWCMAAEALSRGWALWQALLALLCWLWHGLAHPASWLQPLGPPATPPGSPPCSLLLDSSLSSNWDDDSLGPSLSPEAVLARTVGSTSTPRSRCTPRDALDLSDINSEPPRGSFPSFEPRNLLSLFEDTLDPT
Experimental: as §1, §2, §3

Chain of WEE1 (P30291 whole entry): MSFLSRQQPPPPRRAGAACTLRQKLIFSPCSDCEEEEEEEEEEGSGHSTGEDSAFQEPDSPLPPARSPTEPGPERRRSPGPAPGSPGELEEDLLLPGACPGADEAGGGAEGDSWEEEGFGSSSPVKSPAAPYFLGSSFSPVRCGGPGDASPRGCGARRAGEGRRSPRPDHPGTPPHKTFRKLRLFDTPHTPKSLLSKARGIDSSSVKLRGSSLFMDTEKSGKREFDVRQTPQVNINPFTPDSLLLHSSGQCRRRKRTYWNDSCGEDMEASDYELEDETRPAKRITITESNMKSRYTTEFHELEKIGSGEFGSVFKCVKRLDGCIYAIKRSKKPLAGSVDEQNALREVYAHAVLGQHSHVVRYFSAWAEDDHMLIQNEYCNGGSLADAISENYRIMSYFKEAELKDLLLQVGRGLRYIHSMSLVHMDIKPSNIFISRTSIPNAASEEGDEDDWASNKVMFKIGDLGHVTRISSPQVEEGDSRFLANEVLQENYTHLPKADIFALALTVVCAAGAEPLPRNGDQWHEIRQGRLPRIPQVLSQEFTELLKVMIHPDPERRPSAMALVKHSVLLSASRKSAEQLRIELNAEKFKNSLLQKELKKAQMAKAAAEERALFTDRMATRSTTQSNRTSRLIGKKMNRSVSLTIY

IC50 (WEE1) [nM] | IC50 (PKMYT1) [nM] | Compound
> 1000 | < 10 | Cc1ccc(O)c(C)c1-c1nc(C2CCC2)cc2c(N)ncnc12 (single isomer, unassigned) [Compound 40-B]
100 to 1000 | < 10 | Cc1ccc(O)c(C)c1-c1nc(N2CCCC(F)(F)C2)cc2c(N)ncnc12 (single isomer, unassigned) [Compound 20-B]
> 1000 | < 10 | Cc1ccc(O)c(C)c1-c1nc(N2CCC(O)CC2)cc2c(N)ncnc12 (single isomer, unassigned) [Compound 11-B]
> 1000 | 10 to 100 | Cc1ccc(O)c(C)c1-c1c(C)c(N(C)C)cc2c(N)ncnc12 (single isomer, unassigned) [Compound 51-B]
100 to 1000 | < 10 | Cc1ccc(O)c(C)c1-c1nc(N(C)C2CCC2)cc2c(N)ncnc12 (single isomer, unassigned) [Compound 37-B]
